Laboratory results: the NIST ThermoML archive (doi:10.1016/j.jct.2004.07.031)
Several values for one entry are separate records, joined by “and”; a condition that tells them apart may be missing. Equal entries are not always repeated.

Test: molar heat capacity at constant pressure
Settings: 101.33 kPa, Crystal, PPMS instrument (Quantum Design)

O=P([O-])([O-])[O-].[La+3] [lanthanum orthophosphate]
Settings | molar heat capacity at constant pressure
9.994 K | 0.1666 J/K/mol
10 K | 0.1669 J/K/mol
10.01 K | 0.1671 J/K/mol
10.19 K | 0.1769 J/K/mol
10.2 K | 0.1776 J/K/mol and 0.1771 J/K/mol
10.21 K | 0.1778 J/K/mol
11.18 K | 0.2376 J/K/mol
12.19 K | 0.3139 J/K/mol
13.19 K | 0.4068 J/K/mol
14.19 K | 0.5187 J/K/mol
15.2 K | 0.6528 J/K/mol
16.21 K | 0.8094 J/K/mol
17.22 K | 0.9882 J/K/mol
18.24 K | 1.192 J/K/mol
19.25 K | 1.422 J/K/mol
20.24 K | 1.669 J/K/mol
21.28 K | 1.955 J/K/mol
22.27 K | 2.25 J/K/mol
23.28 K | 2.587 J/K/mol
24.29 K | 2.937 J/K/mol
25.31 K | 3.319 J/K/mol
26.33 K | 3.721 J/K/mol
27.36 K | 4.152 J/K/mol
28.34 K | 4.576 J/K/mol
29.38 K | 5.046 J/K/mol
30.37 K | 5.505 J/K/mol
31.4 K | 6.006 J/K/mol
32.4 K | 6.51 J/K/mol
33.41 K | 7.04 J/K/mol
34.43 K | 7.567 J/K/mol
35.43 K | 8.121 J/K/mol
36.45 K | 8.686 J/K/mol
37.45 K | 9.258 J/K/mol
38.41 K | 9.809 J/K/mol
38.46 K | 9.827 J/K/mol
39.48 K | 10.43 J/K/mol
40.48 K | 11.02 J/K/mol
40.49 K | 11.03 J/K/mol
42.49 K | 12.25 J/K/mol
44.51 K | 13.49 J/K/mol
46.53 K | 14.76 J/K/mol
48.55 K | 16.05 J/K/mol
50.57 K | 17.36 J/K/mol
52.59 K | 18.66 J/K/mol
54.6 K | 19.95 J/K/mol
56.62 K | 21.25 J/K/mol
58.64 K | 22.56 J/K/mol
60.66 K | 23.86 J/K/mol
62.68 K | 25.14 J/K/mol
64.7 K | 26.41 J/K/mol
66.72 K | 27.64 J/K/mol
68.74 K | 28.87 J/K/mol
70.74 K | 30.08 J/K/mol
72.76 K | 31.29 J/K/mol
74.78 K | 32.47 J/K/mol
75.85 K | 33.08 J/K/mol
76.8 K | 33.62 J/K/mol
78.81 K | 34.78 J/K/mol
80.81 K | 35.87 J/K/mol
80.84 K | 35.88 J/K/mol
85.86 K | 38.64 J/K/mol
90.91 K | 41.31 J/K/mol
95.96 K | 43.8 J/K/mol
101 K | 46.3 J/K/mol
106 K | 48.66 J/K/mol
111.1 K | 50.92 J/K/mol
116.1 K | 53.11 J/K/mol
121.2 K | 55.16 J/K/mol
126.2 K | 57.26 J/K/mol
131.3 K | 59.2 J/K/mol
136.3 K | 61.11 J/K/mol
141.4 K | 62.97 J/K/mol
146.4 K | 64.73 J/K/mol
151.4 K | 66.44 J/K/mol
156.5 K | 68.1 J/K/mol
161.5 K | 69.61 J/K/mol
166.5 K | 71.14 J/K/mol
171.6 K | 72.74 J/K/mol
176.6 K | 74.33 J/K/mol
181.6 K | 75.68 J/K/mol
186.7 K | 77.05 J/K/mol
191.7 K | 78.48 J/K/mol
196.7 K | 79.89 J/K/mol
201.8 K | 81.31 J/K/mol
206.8 K | 82.59 J/K/mol
211.8 K | 83.86 J/K/mol
216.9 K | 85.21 J/K/mol
221.9 K | 86.36 J/K/mol
226.9 K | 87.35 J/K/mol
231.9 K | 88.39 J/K/mol
237 K | 89.46 J/K/mol
242 K | 90.5 J/K/mol
247 K | 91.49 J/K/mol
252.1 K | 92.36 J/K/mol
257.1 K | 93.28 J/K/mol
262.1 K | 94.21 J/K/mol
267.1 K | 95.29 J/K/mol
272.1 K | 96.19 J/K/mol
277.1 K | 97.31 J/K/mol
282.2 K | 98.39 J/K/mol and 98.37 J/K/mol
287.2 K | 99.41 J/K/mol
287.3 K | 99.33 J/K/mol
292.2 K | 100.36 J/K/mol
292.3 K | 100.2 J/K/mol
297.3 K | 100.95 J/K/mol
302.26 K | 101.79 J/K/mol
302.33 K | 101.79 J/K/mol
302.35 K | 101.81 J/K/mol
307.29 K | 102.41 J/K/mol
307.35 K | 102.45 J/K/mol
307.37 K | 102.44 J/K/mol
312.31 K | 103.05 J/K/mol
312.37 K | 102.95 J/K/mol
312.39 K | 103 J/K/mol
317.33 K | 103.53 J/K/mol
317.4 K | 103.64 J/K/mol
317.42 K | 103.68 J/K/mol
322.35 K | 104.24 J/K/mol
322.44 K | 104.25 J/K/mol
322.45 K | 104.34 J/K/mol
327.36 K | 105.12 J/K/mol
327.45 K | 105.03 J/K/mol
327.48 K | 104.97 J/K/mol
332.38 K | 105.69 J/K/mol
332.46 K | 105.73 J/K/mol
332.48 K | 105.57 J/K/mol
337.4 K | 106 J/K/mol
337.5 K | 106.2 J/K/mol and 106.19 J/K/mol
342.43 K | 106.41 J/K/mol
342.53 K | 106.46 J/K/mol
342.55 K | 106.5 J/K/mol
347.11 K | 107.02 J/K/mol
347.2 K | 106.86 J/K/mol
347.23 K | 106.97 J/K/mol
351.79 K | 107.32 J/K/mol
351.86 K | 107.38 J/K/mol and 107.33 J/K/mol
356.73 K | 107.65 J/K/mol
356.79 K | 107.89 J/K/mol
356.81 K | 107.7 J/K/mol
361.73 K | 108.18 J/K/mol
361.79 K | 108.22 J/K/mol
361.8 K | 108.28 J/K/mol
366.74 K | 108.45 J/K/mol
366.81 K | 108.25 J/K/mol and 108.64 J/K/mol
371.74 K | 108.81 J/K/mol
371.8 K | 108.77 J/K/mol
371.82 K | 108.81 J/K/mol
376.74 K | 109.11 J/K/mol
376.8 K | 109 J/K/mol
376.82 K | 108.98 J/K/mol
381.74 K | 109.41 J/K/mol
381.81 K | 109.29 J/K/mol
